{"source": "paper PMC7217877", "about": "“N-AS-triggered SPMs are direct regulators of microglia in a model of Alzheimer’s disease” (Nature Communications, 2020)", "key": {"APP/PS1 mice [1]": {"system": "APP/PS1 mice", "test": "microglial recruitment to Aβ plaques (Iba1/ThioS colocalization, Fig 5a)", "type": "in vivo, mouse", "conditions": "APP/PS1 + N-AS; cortex; individual values", "description": "Thioflavin S (Sigma-Aldrich) staining was carried out according to previously described procedures. We used 6E10 (mouse, 1:100, Signet, SIG39300), anti-20G10 (mouse, 1:1000, provided by D. R. Howlett, GlaxoSmithKline, Harlow, Essex, UK) for Aβ42, anti-G30 (rabbit, 1:1000, provided by D. R. Howlett) for Aβ40, SMA (mouse, 1:400, Sigma-Aldrich, A2547), AT8 (mouse, 1:500, Thermo Fisher Scientific, MN1020), Caspase-3 (mouse, 1:200, Novus Biologicals, NB100-56708), ac-S565 (rabbit, 1:100), COX2 (mouse, 1:250, Thermo Fisher Scientific, 35-8200), Iba1 (rabbit, 1:500, Wako, 019-19941 and goat, Abcam, ab5076), NeuN (mouse, 1:500, Millipore, MAB177), GFAP (rabbit, 1:500, Dako, N1506 and chicken, 1:500, Abcam, ab4674), and Lamp1 (mouse, 1:200, Abcam, ab24170). The sections were analyzed with a laser-scanning confocal microscope (FV3000; Olympus) or with a BX51 microscope (Olympus). MetaMorph software (Molecular Devices) was used to quantification. Three-dimensional reconstruction of microglia was recorded and analyzed using IMARIS software (Bitplane)[11]. For the analysis of age-dependent microglial COX2^+ CX3CR1^+ cells in WT and APP/PS1 mice, COX2 (rabbit, 1:100, Abcam, ab15191) and CX3CR1 (mouse, 1:100, BioLegend, 149008) antibody were used and the images were acquired on Alexa 488 and APC Channel with performed using Operetta CLS and Analysis Software 4.5 (Perkin-Elmer). […]"}, "APP/PS1 mice [2]": {"system": "APP/PS1 mice", "test": "flow cytometry of blood immune cells (Supplementary Fig 5e-i)", "type": "in vivo, mouse", "parameters": "CD11b+ CD115+ Ly6Chi / CD11b+ CD115+ Ly6Clow / CD115low Ly6Chi Ly6Ghi / CD4+ T cell / B220+ B cell: unit not given here", "description": "(§1) Transgenic mouse lines over-expressing the hAPP695swe (APP) and presenilin-1M146V (PS1) mutations were originated from GlaxoSmithKline (Harlow, UK)[32] and maintained as described previously. We purchased 5×FAD mice from Jackson Labs (Stock number. 34840-JAX). Because APP/PS1 and 5xFAD mice show sex differences in disease progression, we used only male mice. To examine possible therapeutic effect of N-AS and aspirin in APP/PS1 mice, the N-AS (30 mg kg^−1, Sigma-Aldrich, 01912) was injected daily s.c. for 8 weeks to 7-months-old APP/PS1 mice until the age of 9 months, and aspirin (2 mg kg^−1, Sigma-Aldrich, A5376)[33] was administrated orally to 7-months-old APP/PS1 mice for 8 weeks. Also, to confirm possible therapeutic efficacy of N-AS in 5×FAD, the N-AS (30 mg kg^−1, Sigma-Aldrich, 01912) was injected daily s.c. for 4 weeks to 3-months-old 5×FAD mice until the age of 4 months. Block randomization method was used to allocate the animals to experimental groups. To eliminate the bias, we were blinded in experimental progress such as data collection and data analysis. Mice were housed at temperature of 22 °C and a 12 h day/12 h night cycle with free access to tap water and food pellets. All protocols were approved by the Kyungpook National University Institutional Animal Care and Use Committee.\nBrain microglia polarity and immune cells in brain and blood were analyzed by flow cytometry. Cells from WT, APP/PS1, and APP/PS1 treated with N-AS mice brain were prepared as previously described with minor modifications. Brains of WT, APP/PS1, and APP/PS1 treated with N-AS mice were dissected and immediately transferred in ice-cold HBSS (Gibco). After gentle mincing, the brain was digested in a HBSS solution containing collagenase P (0.2 mg ml^−1, Roche), dispase II (0.8 mg ml^−1, Roche), DNase I (0.01 mg ml^−1, Roche), and collagenase A (0.3 mg ml^−1, Roche) at 37 °C for 1 h under gentle rocking. Digestion was stopped by adding FBS (Gibco) on ice. The supernatants were centrifuged at 250×g for 10 min at 4 °C. The pellet was resuspended in 25% BSA (Gibco)/PBS (Gibco) for myelin removal. Following a centrifugation step at 3000×g for 30 min at 4 °C, the myelin containing supernatant was discarded. The cell pellets were then resuspended in 1 ml of HBSS and filtered through a 40 μm mesh, followed by a washing step in HBSS. The cell pellets were resuspended in 1 ml of red blood cell lysis buffer (BD Biosciences) and incubated at RT for 10 min for lysis of erythrocytes. Subsequently, 2 ml of MACs buffer (Miltenyl Biotec, 130-091-222) was added and centrifuged at 250×g for 10 min at 4 °C. Cells from WT, APP/PS1, and APP/PS1 treated with N-AS mice blood were prepared as previously described with minor modifications. Blood was collected in sodium-heparin tube (BD, 367871) by cardiac puncture. Red blood cells were lysed once at 4 °C for 10 min in 0.15 M NH4Cl ([…] Technologies), washed once with PBS (Gibco), and counted using cell counter (Logos biosystems). […]"}, "APP/PS1 mice [3]": {"system": "APP/PS1 mice", "test": "morphometric analysis of Aβ plaques by size (Supplementary Fig 5d)", "type": "in vivo, mouse", "description": "Thioflavin S (Sigma-Aldrich) staining was carried out according to previously described procedures. We used 6E10 (mouse, 1:100, Signet, SIG39300), anti-20G10 (mouse, 1:1000, provided by D. R. Howlett, GlaxoSmithKline, Harlow, Essex, UK) for Aβ42, anti-G30 (rabbit, 1:1000, provided by D. R. Howlett) for Aβ40, SMA (mouse, 1:400, Sigma-Aldrich, A2547), AT8 (mouse, 1:500, Thermo Fisher Scientific, MN1020), Caspase-3 (mouse, 1:200, Novus Biologicals, NB100-56708), ac-S565 (rabbit, 1:100), COX2 (mouse, 1:250, Thermo Fisher Scientific, 35-8200), Iba1 (rabbit, 1:500, Wako, 019-19941 and goat, Abcam, ab5076), NeuN (mouse, 1:500, Millipore, MAB177), GFAP (rabbit, 1:500, Dako, N1506 and chicken, 1:500, Abcam, ab4674), and Lamp1 (mouse, 1:200, Abcam, ab24170). The sections were analyzed with a laser-scanning confocal microscope (FV3000; Olympus) or with a BX51 microscope (Olympus). MetaMorph software (Molecular Devices) was used to quantification. Three-dimensional reconstruction of microglia was recorded and analyzed using IMARIS software (Bitplane)[11]. For the analysis of age-dependent microglial COX2^+ CX3CR1^+ cells in WT and APP/PS1 mice, COX2 (rabbit, 1:100, Abcam, ab15191) and CX3CR1 (mouse, 1:100, BioLegend, 149008) antibody were used and the images were acquired on Alexa 488 and APC Channel with performed using Operetta CLS and Analysis Software 4.5 (Perkin-Elmer).\nas §1"}, "microsomal stability": {"test": "microsomal stability", "type": "in vitro ADME", "conditions": "for half-life at 1 µM: pH 7.4", "description": "An N-AS stock solution (10 mM dissolved in methanol) was diluted with methanol to make a concentration of 100 μM. A 10 μl aliquot of this solution was then diluted using 90 μl of 100 mM potassium phosphate buffer (pH 7.4). 10 μl of this N-AS solution was incubated at 37 °C with human or mouse liver microsomes (80 μl of 0.625 mg protein ml^−1 phosphate buffer) for 10 min before adding of 10 μl of an NADPH regenerating system to start the reaction. Reactions were stopped at 0, 15, 30, 60, and 90 min time-points by the addition of 200 μl cold acetonitrile (containing propranolol as internal standard at 20 ng ml^−1) and centrifuged at 17,968×g for 10 min. A 2 μl aliquot of the supernatant was injected into the LC-MS/MS system. The ratio of peak area of test compound/internal standard was used to determine the % remaining of N-AS over time."}, "[4]": {"conditions": "APP/PS1 + N-AS, individual values, sFig 5d, in % (unit assumed)"}}, "note": "Values joined by “and” are separate entries in the source; they are usually repeats but may differ in a detail not shown here. Equal values may be shown once.", "data": [{"compound": "CCCCCCCCCCCCC/C=C/[C@@H](O)[C@H](CO)NC(C)=O", "note": "[N-AS, N-((2S,3R,E)-1,3-Dihydroxyoctadec-4-en-2-yl)acetamide]", "values": [{"measurement": "Aβ containing /Iba1-positive cells per plaque", "setting": "APP/PS1 mice [1]", "value": "7.5498 and 5.551 and 5.112 and 5.2638 and 4.818 and 7.514"}, {"measurement": "Aβ-positive Microglia/plaque", "setting": "APP/PS1 mice [1]", "value": "27.3068 and 32.6682 and 21.5669 and 18.8144 and 22.2826 and 28.6878"}, {"measurement": "anti-inflammatory monocytes in blood", "setting": "APP/PS1 mice [2]; N-AS vs vehicle APP/PS1", "value": "increased anti-inflammatory monocytes"}, {"measurement": "macrophages and pro-inflammatory monocytes in blood", "setting": "APP/PS1 mice [2]; N-AS vs vehicle APP/PS1", "value": "decreased macrophages and pro-inflammatory monocytes"}, {"measurement": "neutrophils in blood", "setting": "APP/PS1 mice [2]; N-AS vs vehicle APP/PS1", "value": "neutrophils showed no differences between the groups"}, {"measurement": "Lin- CD11b+ F4/80hi", "setting": "APP/PS1 mice [2]; blood, APP/PS1 + N-AS, sFig 5e", "value": "0.31 and 0.35 and 0.29 and 0.33 and 0.3"}, {"measurement": "CD11b+ CD115+ Ly6Chi", "setting": "APP/PS1 mice [2]; blood, APP/PS1 + N-AS, sFig 5f", "value": "0.3325 and 0.21 and 0.4 and 0.265 and 0.235 and 0.305"}, {"measurement": "CD11b+ CD115+ Ly6Clow", "setting": "APP/PS1 mice [2]; blood, APP/PS1 + N-AS, sFig 5f", "value": "0.32 and 0.295 and 0.285 and 0.3075"}, {"measurement": "CD115low Ly6Chi Ly6Ghi", "setting": "APP/PS1 mice [2]; blood, APP/PS1 + N-AS, sFig 5g", "value": "3.9 and 4.5 and 3.15 and 4.65 and 3 and 4.1"}, {"measurement": "B220+ B cell", "setting": "APP/PS1 mice [2]; blood, APP/PS1 + N-AS, sFig 5i", "value": "5.915 and 5.6 and 6.23 and 6.0725"}, {"measurement": "CD4+ T cell", "setting": "APP/PS1 mice [2]; blood, APP/PS1 + N-AS, sFig 5h", "value": "3.42 and 3.21 and 3.63 and 3.525"}, {"measurement": "Aβ plaques by size, 25-50mM", "setting": "APP/PS1 mice [3]; [4]", "value": "2.008 and 5.136 and 3.485 and 2.167 and 5.808 and 4.496 and 5.407 and 0.9834 and 1.041"}, {"measurement": "Aβ plaques by size, <25mM", "setting": "APP/PS1 mice [3]; [4]", "value": "96.4567 and 90.0482 and 94.697 and 95.0162 and 89.7245 and 91.9498 and 90.3491 and 98.0585 and 97.8053"}, {"measurement": "Aβ plaques by size, >50mM", "setting": "APP/PS1 mice [3]; [4]", "value": "1.535 and 4.815 and 1.818 and 2.8169 and 4.468 and 3.555 and 4.244 and 0.9581 and 1.154"}, {"measurement": "medium (25–50 μm) and large-sized (>50 μm) plaques", "setting": "APP/PS1 mice [3]; N-AS vs vehicle APP/PS1", "value": "significant reduction of medium (25–50 μm) and large-sized (>50 μm) plaques"}, {"measurement": "number of small (<25 μm) plaques", "setting": "APP/PS1 mice [3]; N-AS vs vehicle APP/PS1", "value": "significantly increased number of small (<25 μm) plaques"}, {"measurement": "% of remaining after 0.5 h", "setting": "microsomal stability; Mouse liver microsomes", "value": 60.7, "unit": "%"}, {"measurement": "half-life at 1 µM", "setting": "microsomal stability; Human liver microsomes", "value": 36, "unit": "min"}, {"measurement": "half-life at 1 µM", "setting": "microsomal stability; Mouse liver microsomes", "value": 54, "unit": "min"}]}]}
